Assay results taken from US20200017495A1, “NOVEL HETEROCYCLIC COMPOUNDS AND THEIR USE IN PREVENTING OR TREATING BACTERIAL INFECTIONS” (priority 2017, published 2020).

Assays:
Assay type in all cases: cell-based
[1] = system: Citrobacter freundii (CFR) isolates; assay: MIC of compounds alone and combined with antibacterials, broth microdilution (CLSI)
Procedure: (§1) Method 2: MIC of Compounds Alone and Combined with Antibacterials Against Bacterial Isolates
(§2) Compounds of the present invention were assessed against genotyped bacterial strains (Table 3, 4) alone or in combination with an antibacterial (Table 2). […] Log phase bacterial suspensions were adjusted to a final density of 5.10^5 CFU/mL in cation-adjusted Mueller-Hinton broth (ca-MHB; Becton-Dickinson and Company) and added to each well (98 μL). Microplates were incubated for 16-20 h at 35° C. in ambient air. The MIC of the compounds was defined as the lowest concentration of said compounds that prevented bacterial growth as read by visual inspection. The MIC of ATB at each compound concentration was defined as the lowest concentration of ATB that prevented bacterial growth as read by visual inspection.

[2] = system: Citrobacter koseri (CKR) isolates; assay: as above
Procedure: as §1, §2

[3] = system: Morganella morganii (MMO) isolates; assay: as above
Procedure: as §1, §2

[4] = system: Proteus mirabilis (PMI) isolates; assay: microbe, parasite or virus in culture
Procedure: as §1, §2

CC(C)(O/N=C(\C(=O)N[C@@H]1C(=O)N2C(C(=O)[O-])=C(C[n+]3ccccc3)CS[C@H]12)c1csc(N)n1)C(=O)O [CAZ, Ceftazidime]
32 µg/mL: MIC ([1]; strain CFR UFR146, genotype TEM-1, KPC-2) | MIC ([3]; strain MMO UFR242, genotype TEM-52)
<=0.25 μg/mL: MIC ATB in combination ([1]; CFR UFR10, AF2 @ 8 μg/mL) | MIC ATB in combination ([1]; CFR UFR249, AF2 @ 8 μg/mL) | MIC ATB in combination ([1]; CFR UFR250, AF2 @ 8 μg/mL) | MIC ATB in combination ([3]; MMO 200321, AF2 @ 8 μg/mL) | MIC ATB in combination ([3]; MMO 200321, AF3 @ 8 μg/mL) | MIC ATB in combination ([3]; MMO UFR144, AF2 @ 8 μg/mL) | MIC ATB in combination ([3]; MMO UFR144, AF3 @ 8 μg/mL) | MIC ATB in combination ([3]; MMO UFR240, AF2 @ 8 μg/mL) | MIC ATB in combination ([3]; MMO UFR240, AF3 @ 8 μg/mL) | MIC ATB in combination ([3]; MMO UFR241, AF2 @ 8 μg/mL) | MIC ATB in combination ([3]; MMO UFR241, AF3 @ 8 μg/mL) | MIC ATB in combination ([3]; MMO UFR242, AF2 @ 8 μg/mL) | MIC ATB in combination ([3]; MMO UFR242, AF3 @ 8 μg/mL) | MIC ATB in combination ([3]; MMO UFR243, AF2 @ 8 μg/mL) | MIC ATB in combination ([3]; MMO UFR243, AF3 @ 8 μg/mL) | MIC ATB in combination ([3]; MMO UFR244, AF2 @ 8 μg/mL) | MIC ATB in combination ([3]; MMO UFR244, AF3 @ 8 μg/mL) | MIC ATB in combination ([3]; MMO UFR245, AF2 @ 8 μg/mL) | MIC ATB in combination ([3]; MMO UFR245, AF3 @ 8 μg/mL) | MIC ATB in combination ([3]; MMO UFR246, AF2 @ 8 μg/mL) | MIC ATB in combination ([3]; MMO UFR246, AF3 @ 8 μg/mL) | MIC ATB in combination ([3]; MMO UFR247, AF2 @ 8 μg/mL) | MIC ATB in combination ([3]; MMO UFR247, AF3 @ 8 μg/mL) | MIC ([4]; strain PMI UFR120, genotype TEM-1, SHV-11, CTX-M-14) | MIC ([4]; strain PMI UFR133, genotype OXA-23)
4 µg/mL: MIC ATB in combination ([1]; CFR UFR11, AF3 @ 8 μg/mL) | MIC ATB in combination ([1]; strain CFR UFR253, with AF3 @ 8 μg/mL) | MIC ATB in combination ([2]; CKO UFR150, AF2 @ 8 μg/mL) | MIC ATB in combination ([2]; CKO UFR150, AF3 @ 8 μg/mL) | MIC ([2]; strain CKO UFR150, genotype TEM-1, OXA-48) | MIC ([3]; strain MMO UFR246, genotype DHA-1) | MIC ([4]; strain PMI UFR82, genotype CMY-2) | MIC ([4]; strain PMI UFR130, genotype CMY-2)
8 µg/mL: MIC ATB in combination ([1]; CFR UFR11, AF2 @ 8 μg/mL) | MIC ATB in combination ([1]; CFR UFR37, AF2 @ 8 μg/mL) | MIC ([1]; strain CFR UFR11, genotype TEM-1, OXA-1, OXA-48) | MIC ATB in combination ([1]; strain CFR UFR252, with AF2 @ 8 μg/mL) | MIC ATB in combination ([1]; strain CFR UFR253, with AF2 @ 8 μg/mL) | MIC ([3]; strain MMO UFR144, genotype TEM-1, CTX-M-15) | MIC ([3]; strain MMO UFR241, genotype TEM-1, CTX-M-15) | MIC ([3]; strain MMO UFR245, genotype DHA-1)
2 µg/mL: MIC ATB in combination ([1]; CFR UFR146, AF2 @ 8 μg/mL) | MIC ([4]; strain PMI UFR123, genotype CTX-M-1) | MIC ([4]; strain PMI UFR124, genotype CTX-M-2) | MIC ([4]; strain PMI UFR125, genotype CTX-M-71)
64 µg/mL: MIC ([1]; strain CFR UFR249, genotype TEM-1, CTX-M-15) | MIC ([1]; strain CFR UFR252, genotype VIM-2, antibiotic alone)
1 µg/mL: MIC ATB in combination ([1]; CFR UFR146, AF3 @ 8 μg/mL) | MIC ATB in combination ([2]; CKO ROU, AF2 @ 8 μg/mL) | MIC ATB in combination ([2]; CKO ROU, AF3 @ 8 μg/mL) | MIC ([2]; strain CKO ROU, genotype TEM-1, SHV-12, CTX-M-15, OXA-1, OXA-48) | MIC ([3]; strain MMO UFR243, genotype DHA-1) | MIC ([4]; strain PMI UFR122, genotype TEM-1, CTX-M-15)
0.5 µg/mL: MIC ATB in combination ([1]; strain CFR UFR251, with AF2 @ 8 μg/mL) | MIC ATB in combination ([1]; strain CFR UFR254, with AF3 @ 8 μg/mL) | MIC ([3]; strain MMO UFR240, genotype CTX-M-9) | MIC ([3]; strain MMO UFR244, genotype DHA-1) | MIC ([3]; strain MMO UFR247, genotype DHA-1)
>128 µg/mL: MIC ATB in combination ([1]; CFR UFR83, AF2 @ 8 μg/mL) | MIC ATB in combination ([1]; CFR UFR83, AF3 @ 8 μg/mL) | MIC ([1]; strain CFR UFR37, genotype TEM-1, CTX-M-15, NDM-1) | MIC ([1]; strain CFR UFR83, genotype TEM-3, AmpC) | MIC ([1]; strain CFR UFR147, genotype TEM-1, CTX-M-15, OXA-1, OXA-181, OXA-10, OXA-9, NDM-1, ArmA, dfrA12, aadA2, antibiotic alone) | MIC ([1]; strain CFR UFR148, genotype TEM-1, TEM-2, CTX-M-15, NDM-1, antibiotic alone) | MIC ([1]; strain CFR UFR253, genotype TEM-1, SHV-12, OXA-48) | MIC ([2]; strain CKO UFR149, genotype OXA-48) | MIC ATB in combination ([3]; strain MMO UFR145, with AF2 @ 8 μg/mL) | MIC ATB in combination ([3]; strain MMO UFR145, with AF3 @ 8 μg/mL) | MIC ([4]; strain PMI UFR126, genotype TEM-2, PER-1) | MIC ([4]; strain PMI UFR127, genotype VEB-1) | MIC ([4]; strain PMI UFR128, genotype VEB-1, OXA-10) | MIC ([4]; strain PMI UFR129, genotype TEM-1, VEB-6) | MIC ([4]; strain PMI UFR131, genotype CMY-16, OXA-1, OXA-10, NDM-1, ArmA) | MIC ([4]; strain PMI UFR132, genotype VEB-6, DHA-1, NDM-1, AphA6, AacA4) | MIC ([4]; strain PMI UFR237, genotype VEB-6)
16 µg/mL: MIC ATB in combination ([1]; strain CFR UFR252, with AF3 @ 8 μg/mL) | MIC ([3]; strain MMO 200321, genotype TEM-1, CTX-M-15, OXA-1) | MIC ([4]; strain PMI UFR121, genotype TEM-1, TEM-52)
<0.25 µg/mL: MIC ATB in combination ([1]; CFR UFR10, AF3 @ 8 μg/mL) | MIC ATB in combination ([1]; CFR UFR37, AF3 @ 8 μg/mL) | MIC ATB in combination ([1]; CFR UFR248, AF2 @ 8 μg/mL) | MIC ATB in combination ([1]; CFR UFR248, AF3 @ 8 μg/mL) | MIC ATB in combination ([1]; CFR UFR249, AF3 @ 8 μg/mL) | MIC ATB in combination ([1]; CFR UFR250, AF3 @ 8 μg/mL) | MIC ATB in combination ([1]; strain CFR UFR147, with AF2 @ 8 μg/mL) | MIC ATB in combination ([1]; strain CFR UFR147, with AF3 @ 8 μg/mL) | MIC ATB in combination ([1]; strain CFR UFR148, with AF2 @ 8 μg/mL) | MIC ATB in combination ([1]; strain CFR UFR148, with AF3 @ 8 μg/mL) | MIC ATB in combination ([1]; strain CFR UFR251, with AF3 @ 8 μg/mL) | MIC ATB in combination ([1]; strain CFR UFR254, with AF2 @ 8 μg/mL) | MIC ATB in combination ([2]; CKO UFR149, AF2 @ 8 μg/mL) | MIC ATB in combination ([2]; CKO UFR149, AF3 @ 8 μg/mL) | MIC ATB in combination ([4]; PMI UFR82, AF2 @ 8 μg/mL) | MIC ATB in combination ([4]; PMI UFR82, AF3 @ 8 μg/mL) | MIC ATB in combination ([4]; PMI UFR126, AF2 @ 8 μg/mL) | MIC ATB in combination ([4]; PMI UFR126, AF3 @ 8 μg/mL) | MIC ATB in combination ([4]; PMI UFR127, AF2 @ 8 μg/mL) | MIC ATB in combination ([4]; PMI UFR127, AF3 @ 8 μg/mL) | MIC ATB in combination ([4]; PMI UFR128, AF2 @ 8 μg/mL) | MIC ATB in combination ([4]; PMI UFR128, AF3 @ 8 μg/mL) | MIC ATB in combination ([4]; PMI UFR129, AF2 @ 8 μg/mL) | MIC ATB in combination ([4]; PMI UFR129, AF3 @ 8 μg/mL) | MIC ATB in combination ([4]; PMI UFR130, AF2 @ 8 μg/mL) | MIC ATB in combination ([4]; PMI UFR130, AF3 @ 8 μg/mL) | MIC ATB in combination ([4]; PMI UFR133, AF2 @ 8 μg/mL) | MIC ATB in combination ([4]; PMI UFR133, AF3 @ 8 μg/mL) | MIC ATB in combination ([4]; PMI UFR237, AF2 @ 8 μg/mL) | MIC ATB in combination ([4]; PMI UFR237, AF3 @ 8 μg/mL) | MIC ATB in combination ([4]; strain PMI UFR131, with AF2 @ 8 μg/mL) | MIC ATB in combination ([4]; strain PMI UFR131, with AF3 @ 8 μg/mL) | MIC ATB in combination ([4]; strain PMI UFR132, with AF2 @ 8 μg/mL) | MIC ATB in combination ([4]; strain PMI UFR132, with AF3 @ 8 μg/mL)
